Values joined by “and” are separate entries in the source; they are usually repeats but may differ in a detail not shown here. Equal entries are not always repeated.

For one assay, the system named is acyl-CoA dehydrogenases. Description: In vitro acyl-CoA dehydrogenase ferrocenium assay with C. tyrobutyricum cell-free extract. The format is biochemical. To be noted: 0.5 to 10 mM compound; rate of ferrocenium reduction at 300 nm. The method, then:
Lehman, et al., in An Acyl-Coenzyme A Dehydrogenase Assay Utilizing the Ferricenium Ion, Analytical Biochemistry 186, pages 280-284 (1990), disclose an in vitro assay screening technique for acyl-CoA dehydrogenases for determining enzyme deficiencies in children. An adaptation of this technique was explored as a potential screening method for ascertaining potential butyrogen inhibitors. An aqueous assay liquor is prepared such that each 1 milliliter sample contains 50 mM of TrisHCl buffer (pH 7.6); 0.05 mM of butyryl-CoA; 5 micromoles of FAD (flavin adenine dinucleotide) and 0.4 mM of ferrocenium. Whole cells of C. tyrobutyricum are lysed and are added to the assay liquor. […] The abbreviation mM stands for millimolar. To assure metabolic consistency among the samples a master batch of C. tyrobutyricum is prepared and harvested at the early log growth stage (approximate O.D. of between about 0.5 and 0.7). The master batch fermentation broth is centrifuged and rinsed with 50 mM TrisHCl buffer (pH 7.6), centrifuged and reconstituted with 50 mM TrisHCl buffer (pH 7.6) to be 10 times more concentrated than the original master batch. Aliquots of about 0.5 milliliter are placed into cryogenic vials (about 1.8 milliliter capacity) and frozen at −80° C. until needed. When needed, a vial is placed in an anoxic Coy chamber and allowed to thaw to room temperature. Once thawed, the cells are added to a 15 mL centrifuge tube and diluted with 0.5 mL of a 2 mg/mL solution of lysozyme (purchased from Aldrich) in 50 mM Tris-HCl (final concentration of lysozyme is about 1 mg/mL). The centrifuge tube is inverted 5 times, removed from the Coy chamber and allowed to incubate at 37° C. for 30 minutes. […] The centrifuge tube is vortexed in the Coy chamber for about 30 seconds, removed from the chamber and centrifuged for 15 minutes at 4000 rpm and 4° C. The tube is returned to the chamber and the cell-free extract (supernatant) is used to prepare the above described samples. The samples are analyzed at various times by absorbance spectroscopy at 300 nm using a Thermo Scientific Evolution 300 UV/Vis spectrophotometer with a 7-cuvette carousel and Starna quartz cuvettes with a septum cap to determine the amount of reduction of ferrocenium. The sample is at laboratory temperature and is maintained under anaerobic conditions. Typically, the absorbance is measured over a period of about 10 to 20 minutes which is sufficient time for the absorbance to stop changing. A linear slope of the rate of change in absorbance during the period that the absorbance is changing is determined using Microsoft Excel® 2010 linear regression to generate a straight line from the data points. The more gradual the slope, the better inhibition because the enzyme is slower at reducing the ferrocenium in the assay sample. A dose-response curve is then determined for each compound by plotting the linear slope against the respective compound concentration. A linear slope is then determined for each compound using Microsoft Excel® 2010 linear regression to generate a straight line from the data points. The steeper the dose-response slope, the better the inhibition because the increased concentration of the compound causes more of a difference in enzyme activity. The dose-response slope generally has a broad standard of deviation due to experimental imprecision and slope determinations.

The subject of assay [1] is C. autoethanogenum. As to the kind of experiment: Balch tube batch growth of homoacetogen C. autoethanogenum on fructose, optical density. The class given is cell-based. To be noted: added 21 h after inoculation. The method, then:
These compounds were first tested to determine their effect on a known homoacetogen. Each compound was tested in a series of batch experiments to determine the growth response of a homoacetogen to the presence of the compound at varying concentrations. The batch experiments were all conducted by anoxically filling a Balch tube with 5 ml of a fermentation medium having the composition given in Tables 2 and 3. To expedite results, these batch experiments used fructose as the growth nutrient source for bacteria. Thus, the media included a 5 g/L of fructose.
Each tube was inoculated with 0.5 ml of the same strain of C. autoethanogenum bacteria seed culture inoculum. The tubes were maintained at a temperature of 37° C. Twenty one hours after the inoculation of the tube with the bacteria, the different crotonate derivatives from Table 1 were added to different tubes in the amounts indicated in Table 4 This was at a time of early to mid-log phase growth for the bacteria. Each fermentation of the bacteria in the media at the different concentration of crotonate derivatives were allowed to progress and were monitored to determine the bacteria growth at selected intervals of time varying from approximately 20 hours to 190 hours. Growth at the intervals was measured by reading the optical density (OD) of the fermentation liquid. Optical density was measured using a Spectronic Spec 20 (Thermo Spectronic) at a wavelength of 600 nm. The OD of the Balch tube culture was measured directly in the tube using absorbance mode on the Spec 20 machine. The machine was set to zero absorbance by first measuring and adjusting the setting to zero absorbance using media only as a blank. This process was repeated at each indicated time point throughout the experiment. The ability of a tube fermentation at a particular concentration of crotonate derivative to reach a predetermined optical density was recorded in Table 4. Table 4 indicates the presence of bacterial growth to an OD of approximately 2 or above with a “+”, and to an optical density in a range of 0.5 to 1.5 as a “+/−”, and indicates the failure of bacterial growth to reach an optical density of approximately 0.5 as a “−”.

For assay [2], the system named is Clostridium tyrobutyricum. Description: Balch tube batch growth of strict butyrogen Clostridium tyrobutyricum on fructose, optical density. The class given is cell-based. To be noted: added 21 h after inoculation. Here is the method:
Similar experiments were conducted to make a preliminary determination as to which of the crotonate and crotonate-like compounds would act as butyrogen retardants. For this purpose the selected compounds were tested again in a series of batch experiments to determine the growth response of butyrogens to the presence of the compound at varying concentrations. The batch experiments were all conducted by anoxically filling a 20 ml Balch tube with 5 ml of a fermentation medium having the composition given in Tables 2 and 3. The media included 0.5 v/v final concentration of a fructose substrate. For each of the crotonate concentrations tested, duplicate test tubes were prepared.
Each tube was inoculated with 0.5 ml seed culture inoculum of the strict butyrogen Clostridium tyrobutyricum. The tubes were maintained at a temperature of 37° C. Twenty one hours after the inoculation of the tube with the bacteria, the different compounds from Table 1 were added to different tubes in the amounts indicated in Table 6. This was at a time of early to mid-log phase growth for the bacteria. Each fermentation of the bacteria in the media at the different concentration of crotonate derivatives were allowed to progress and were monitored to determine the bacteria growth at selected intervals of time varying from approximately 20 hours to 54 hours. Growth at the intervals was measured by reading the optical density (OD) of the fermentation liquid. Optical density was measured as described in Example 1. The ability of a tube fermentation at a particular concentration of crotonate derivative to reach a predetermined optical density was recorded in Table 6. Table 6 indicates the presence of bacterial growth to an OD of approximately 1.8 or above with a “+”, and to an optical density in a range of 0.7 to 1.5 as a “+/−”, and indicates the failure of bacterial growth to reach an optical density of approximately 0.7 as a “−”.

Assay [3] deals with C. autoethanogenum. Description: Toxicity to C. autoethanogenum by batch fermentation using syngas substrate, optical density. The class given is cell-based, Clostridium autoethanogenum. To be noted: for O.D. Response of Various Inhibitors on C. autoethanogenum: Table 21, one value per compound; for O.D. Response to Various Inhibitors: duplicates A and B, amount not given. The method, then:
In this example various crotonate-like compounds on are evaluated for toxicity to C. autoethanogenum by batch fermentation using syngas substrate. The batch fermentations are conducted by anoxically filling 100 mL serum bottles with 10 mL of media having the composition given in Tables 12 and 13. Duplicate runs are conducted for each concentration. The compounds are: • C-1 Ethyl 4,4,4-trifluoro-3-(trifluoromethyl)crotonate • C-4 4,4,4-Trifluorocrotonamide • C-9 Ethyl 4,4,4-Trifluoro-3-(amino)crotonate • C-18 3 trifluoromethyl-4-methoxybenzoate.
Each bottle is inoculated with 1.0 mL of seed culture inoculum from an active fermenter using syngas substrate and containing Clostridium autoethanogenum, which inoculum has an OD of about 4.92 (which upon a 10 times dilution provides a starting OD for the fermentation of about 0.49). The bottles are gased with syngas to about 100 kilopascals and maintained at a temperature of 37° C. The bottles are regassed with syngas every 8 to 12 hours. The syngas has the approximate composition set forth in Examples 6 to 10. Twenty four hours after inoculation of the bottles with the bacteria, the compounds are added to different bottles as a solution in 50 μL of N-methylpyrrolidone in the amounts indicated in Tables 20 and 21. The fermentation process is allowed to progress at 37° C. At selected intervals of time, bacterial growth is measured by reading the OD of the fermentation liquid using a Thermo Spectronic Genesys 20 spectrophotometer. Optical density is measured by anoxically removing an aliquot of fermentation liquid and adding it to a disposable cuvette. OD's ranging between 0.01 and 0.4 are measured using fermentation liquid directly, while OD's greater than 0.4 are measure after performing a 1/10 dilution with water.

Setting [4] is: 0 Hours, added 24 h after inoculation.
Where [5] appears, read: 2.5 Hours, added 24 h after inoculation.
Setting [6] is: 6.5 Hours, added 24 h after inoculation.
Setting [7] is: 24.5 Hours, added 24 h after inoculation.

As for `COc1ccc(C(N)=O)cc1C(F)(F)F` [3-Trifluoromethyl-4-methoxybenzamide], the “Dose-Response Slope” value in the assay with acyl-CoA dehydrogenases turned out to be 12.
With `CCOC(=O)/C(C)=C/C(F)(F)F` [F, ethyl-2-methyl-4,4,4-trifluorocrotonate, reference compound], the “Optical density valuation of C. autoethanogenum” value in the assay on C. autoethanogenum [1] (10 ppm(m)) is listed as “+ (bacterial growth to an OD of approximately 2 or above)”; with C. autoethanogenum [1] (100 ppm(m)), “+ (bacterial growth to an OD of approximately 2 or above)”; in the assay with C. autoethanogenum [1] (500 ppm(m)), “+ (bacterial growth to an OD of approximately 2 or above)”; with C. autoethanogenum [1] (1000 ppm(m)) it was “+ (bacterial growth to an OD of approximately 2 or above)”; with C. autoethanogenum [1] (5000 ppm(m)) it was “+/− (to an optical density in a range of 0.5 to 1.5)”; in the assay with C. autoethanogenum [1] (10000 ppm(m)), “− (failure of bacterial growth to reach an optical density of approximately 0.5)”. Besides, the “Optical density valuation of C. tyrobutyricum” value in assay [2] (100 ppm(m)), in assay [2] (500 ppm(m)) and in assay [2] (1000 ppm(m)) was “+ (bacterial growth to an OD of approximately 1.8 or above)” in each case. Besides, the “Dose-Response Slope” value in the assay with acyl-CoA dehydrogenases was found to be 2.
Regarding `NC(=O)/C=C/C(F)(F)F` [Compound C-4, 4,4,4-Trifluorocrotonamide], the “Dose-Response Slope” value with acyl-CoA dehydrogenases turned out to be 8. The “O.D. Response of Various Inhibitors on C. autoethanogenum” value in the assay on C. autoethanogenum [3] (setting [4]) was 0.49; in the assay on C. autoethanogenum [3] (setting [5]), 0.41; in the assay on C. autoethanogenum [3] (setting [6]), 0.42; in the assay on C. autoethanogenum [3] (setting [7]) it was 1.06; with C. autoethanogenum [3] (30.5 Hours), 1.32; in the assay on C. autoethanogenum [3] (47.5 Hours), 1.67. Further, the “O.D. Response of Various Inhibitors on C. autoethanogenum” value in the assay on C. autoethanogenum [3] (56 Hours) is 1.72. For the same compound, the “O.D. Response to Various Inhibitors” value was 0.49 in the assay on C. autoethanogenum [3] (setting [4]); 0.40 and 0.42 with C. autoethanogenum [3] (setting [5]); 0.4 and 0.43 with C. autoethanogenum [3] (setting [6]); 1.03 and 1.09 with C. autoethanogenum [3] (setting [7]); 1.31 and 1.33 in the assay on C. autoethanogenum [3] (30.5 Hours, added 24 h after inoculation); 1.7 and 1.64 with C. autoethanogenum [3] (47.5 Hours, added 24 h after inoculation).
Regarding `NC(=O)c1ccc(F)c(C(F)(F)F)c1` [3-Trifluoromethyl-4-fluorobenzamide], in the assay on acyl-CoA dehydrogenases, the “Dose-Response Slope” value is given as 5.
Turning to `CCOC(=O)/C=C/C(F)(F)F` [E, ethyl 4,4,4-trifluorocrotonate], the “Optical density valuation of C. autoethanogenum” value with C. autoethanogenum [1] (10 ppm(m)) is given as “+ (bacterial growth to an OD of approximately 2 or above)”; in the assay with C. autoethanogenum [1] (100 ppm(m)) it was “+ (bacterial growth to an OD of approximately 2 or above)”; in the assay with C. autoethanogenum [1] (500 ppm(m)) it was “+ (bacterial growth to an OD of approximately 2 or above)”; with C. autoethanogenum [1] (1000 ppm(m)) it was “+ (bacterial growth to an OD of approximately 2 or above)”; in the assay with C. autoethanogenum [1] (5000 ppm(m)) it was “− (failure of bacterial growth to reach an optical density of approximately 0.5)”; in the assay on C. autoethanogenum [1] (10000 ppm(m)), “− (failure of bacterial growth to reach an optical density of approximately 0.5)”. In addition, the “Optical density valuation of C. tyrobutyricum” value in assay [2] (100 ppm(m)), in assay [2] (500 ppm(m)) and in assay [2] (1000 ppm(m)) was “+ (bacterial growth to an OD of approximately 1.8 or above)” throughout. Moreover, the “Dose-Response Slope” value with acyl-CoA dehydrogenases turned out to be 6.
On to `CCOC(=O)c1ccccc1C(F)(F)F` [Ethyl 2-(trifluoromethyl)benzoate], for which the “Dose-Response Slope” value with acyl-CoA dehydrogenases turned out to be 8.
With `O=C(O)c1cccc(C(F)(F)F)c1` [3-(Trifluoromethyl)benzoate], the “Dose-Response Slope” value in the assay with acyl-CoA dehydrogenases is listed as 6.

Values taken from US20130071897A1, “METHOD FOR CONTROLLING UNDESIRABLE BYPRODUCTS FORMATION CAUSED BY CONTAMINATING ORGANISMS IN THE PRODUCTION OF ETHANOL FROM SYNGAS” (COSKATA, INC., priority 2011, published 2013).
